Measurements: ChEMBL document CHEMBL1201862, “PubChem BioAssay data set” (2004)
Calls of active or inactive are those of the source.

How the values were obtained:
[1] = biological target: T1, Intestinal-type alkaline phosphatase (Homo sapiens, UniProt P09923); experiment: inhibition of human intestinal alkaline phosphatase – biochemical, dose response (AID 488876); type: functional
[2] = biological target: Polyadenylate-binding protein 1 (Homo sapiens, UniProt P11940); experiment: blockers of PABP interaction with poly(A) – biochemical, fluorescence polarization, […] (AID 2014)
[3] = biological target: Eukaryotic translation initiation factor 4H (Homo sapiens, UniProt Q15056); experiment: eIF4H binding inhibition – biochemical, uHTS, fluorescence polarization, translation initiation inhibitor project, primary screen (AID 2012)
[4] = biological target: T1, Intestinal-type alkaline phosphatase; experiment: human intestinal alkaline phosphatase activators, dose response, biochemical, luminescence, uHTS hits (AID 463120); type: functional
[5] = biological target: T1, Intestinal-type alkaline phosphatase; experiment: activation of human intestinal alkaline phosphatase – biochemical, luminescent, uHTS hits, set 2, dose response (AID 488817); type: functional;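 note: potency of activators that raise enzyme activity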
[6] = biological target: Intestinal-type alkaline phosphatase (Mus musculus, UniProt P24822); experiment: PubChem AID 488785; type: functional
[7] = biological target: T2, Alkaline phosphatase, tissue-nonspecific isozyme (Homo sapiens, UniProt P05186); experiment: activation of tissue-nonspecific alkaline phosphatase – biochemical, TNAP isozyme, human IAP uHTS hits, selectivity assay for human IAP activator project, dose response (AID 488886); type: functional;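 note: potency of compounds raising TNAP activity as a selectivity check on IAP activators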
T2 sequence (P05186 whole entry): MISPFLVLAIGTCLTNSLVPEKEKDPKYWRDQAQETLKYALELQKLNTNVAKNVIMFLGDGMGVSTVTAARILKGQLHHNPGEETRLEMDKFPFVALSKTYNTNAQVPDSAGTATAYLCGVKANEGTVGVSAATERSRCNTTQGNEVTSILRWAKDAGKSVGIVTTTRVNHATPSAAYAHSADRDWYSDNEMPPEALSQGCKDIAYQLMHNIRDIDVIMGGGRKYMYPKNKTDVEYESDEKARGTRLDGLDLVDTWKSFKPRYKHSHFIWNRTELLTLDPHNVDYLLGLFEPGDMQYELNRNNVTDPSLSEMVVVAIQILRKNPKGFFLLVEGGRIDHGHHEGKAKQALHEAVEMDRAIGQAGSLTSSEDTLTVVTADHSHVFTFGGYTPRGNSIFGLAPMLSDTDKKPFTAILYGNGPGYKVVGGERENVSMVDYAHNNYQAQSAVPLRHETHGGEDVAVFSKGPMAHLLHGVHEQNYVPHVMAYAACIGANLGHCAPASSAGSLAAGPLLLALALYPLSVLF

[8] = biological target: T2, Alkaline phosphatase, tissue-nonspecific isozyme; experiment: TNAP enzyme inhibition by screening hits, dose response, selectivity assay for mouse IAP inhibitor project, biochemical, human TNAP, uHTS hits (AID 488906); type: functional
[9] = tested on: INS1; experiment: INS-1E survival protection against cytokine death – cell-based, luminescence, retest, dose response (AID 449756); type: functional; settings: Rattus norvegicus;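 note: cell death triggered by IL-1 beta plus TNF-alpha plus IFN-gamma mixture; protective hits raise ATP signal compared with cytokine alone wells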
[10] = biological target: Nonstructural protein 1 (Influenza A virus, UniProt Q194T2); type: functional, Influenza A virus (A/California/07/2009(H1N1))
[11] = tested on: Streptococcus sp. 'group A'; experiment: Streptococcus pyogenes SK(-)GAS viability under kanamycin – luminescence, BacTiterGlo, confirmation, counter-screen for streptokinase expression inhibitor project, dose response (AID 1900); type: functional, organism-based
[12] = biological target: T3, Streptokinase A (Streptococcus pyogenes serotype M1, UniProt P10520); experiment: viability-normalized secreted streptokinase activity reduction – plasminogen activation absorbance, OD405, dose response (AID 1914); type: functional, Streptococcus pyogenes M1 GAS;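 note: secreted streptokinase activity via plasminogen activation per viability signal from cell pellet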
T3 sequence (P10520 whole entry): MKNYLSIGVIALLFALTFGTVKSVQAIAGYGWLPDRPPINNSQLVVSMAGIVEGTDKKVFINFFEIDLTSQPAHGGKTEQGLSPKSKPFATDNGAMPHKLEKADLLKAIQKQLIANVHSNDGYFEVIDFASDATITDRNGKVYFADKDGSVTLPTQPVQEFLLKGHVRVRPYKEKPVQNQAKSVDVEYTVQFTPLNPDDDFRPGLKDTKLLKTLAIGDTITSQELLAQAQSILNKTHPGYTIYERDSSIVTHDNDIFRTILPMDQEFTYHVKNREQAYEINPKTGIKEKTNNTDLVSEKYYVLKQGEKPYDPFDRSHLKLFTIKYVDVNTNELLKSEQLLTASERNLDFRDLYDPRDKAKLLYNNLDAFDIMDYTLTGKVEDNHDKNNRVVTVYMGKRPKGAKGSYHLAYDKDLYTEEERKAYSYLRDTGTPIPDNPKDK

[13] = tested on: Streptococcus; experiment: GAS UMAA2166 growth inhibition – luminescence, BacTiterGlo, counter-screen for streptokinase expression inhibitor project, dose response (AID 1915); type: functional, organism-based;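 note: potency for reduction of bacterial viability or growth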
[14] = biological target: Latent membrane protein 1 (Human herpesvirus 4 (strain B95-8), UniProt P03230); experiment: LMP1 TES1 pathway selectivity over dsRED control – imaging, HEK293T, dual-color eGFP/dsRED, cherry-picks, selectivity assay for LMP1 NF-kB inhibitor project, dose response (AID 588398); type: functional, cell-based
Latent membrane protein 1, sequence (P03230 whole entry): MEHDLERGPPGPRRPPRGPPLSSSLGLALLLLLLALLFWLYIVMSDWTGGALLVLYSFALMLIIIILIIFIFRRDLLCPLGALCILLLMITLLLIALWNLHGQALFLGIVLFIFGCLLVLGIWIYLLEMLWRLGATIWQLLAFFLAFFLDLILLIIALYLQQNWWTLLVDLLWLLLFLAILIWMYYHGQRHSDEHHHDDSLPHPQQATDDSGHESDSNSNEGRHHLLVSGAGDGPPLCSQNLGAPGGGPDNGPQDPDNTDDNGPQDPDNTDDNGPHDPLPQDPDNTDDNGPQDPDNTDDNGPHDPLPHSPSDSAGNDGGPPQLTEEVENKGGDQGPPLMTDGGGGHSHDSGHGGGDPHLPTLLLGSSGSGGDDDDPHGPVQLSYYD

T1 sequence (P09923 whole entry): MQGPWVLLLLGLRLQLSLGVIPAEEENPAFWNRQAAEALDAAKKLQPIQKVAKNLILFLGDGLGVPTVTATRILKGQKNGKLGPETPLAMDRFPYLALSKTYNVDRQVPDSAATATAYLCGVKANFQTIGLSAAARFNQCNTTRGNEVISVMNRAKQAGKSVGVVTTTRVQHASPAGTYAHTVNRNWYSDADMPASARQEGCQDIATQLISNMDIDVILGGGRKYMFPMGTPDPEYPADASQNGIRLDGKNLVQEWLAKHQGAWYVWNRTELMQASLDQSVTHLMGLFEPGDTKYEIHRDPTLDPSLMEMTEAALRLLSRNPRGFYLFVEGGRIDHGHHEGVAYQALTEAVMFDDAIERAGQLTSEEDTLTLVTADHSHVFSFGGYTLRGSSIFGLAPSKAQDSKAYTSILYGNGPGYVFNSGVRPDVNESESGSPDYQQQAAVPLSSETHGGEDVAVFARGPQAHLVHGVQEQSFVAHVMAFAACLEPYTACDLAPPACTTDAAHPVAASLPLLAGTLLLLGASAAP
Nonstructural protein 1, sequence (Q194T2 whole entry): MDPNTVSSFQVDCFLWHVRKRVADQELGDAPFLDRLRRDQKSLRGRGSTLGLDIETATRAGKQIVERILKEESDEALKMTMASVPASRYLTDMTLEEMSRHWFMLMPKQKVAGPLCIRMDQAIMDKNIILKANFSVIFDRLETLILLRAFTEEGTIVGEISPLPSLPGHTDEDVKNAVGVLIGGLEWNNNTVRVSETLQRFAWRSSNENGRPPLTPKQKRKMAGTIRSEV
Intestinal-type alkaline phosphatase (Mus musculus, UniProt P24822), sequence (P24822 whole entry): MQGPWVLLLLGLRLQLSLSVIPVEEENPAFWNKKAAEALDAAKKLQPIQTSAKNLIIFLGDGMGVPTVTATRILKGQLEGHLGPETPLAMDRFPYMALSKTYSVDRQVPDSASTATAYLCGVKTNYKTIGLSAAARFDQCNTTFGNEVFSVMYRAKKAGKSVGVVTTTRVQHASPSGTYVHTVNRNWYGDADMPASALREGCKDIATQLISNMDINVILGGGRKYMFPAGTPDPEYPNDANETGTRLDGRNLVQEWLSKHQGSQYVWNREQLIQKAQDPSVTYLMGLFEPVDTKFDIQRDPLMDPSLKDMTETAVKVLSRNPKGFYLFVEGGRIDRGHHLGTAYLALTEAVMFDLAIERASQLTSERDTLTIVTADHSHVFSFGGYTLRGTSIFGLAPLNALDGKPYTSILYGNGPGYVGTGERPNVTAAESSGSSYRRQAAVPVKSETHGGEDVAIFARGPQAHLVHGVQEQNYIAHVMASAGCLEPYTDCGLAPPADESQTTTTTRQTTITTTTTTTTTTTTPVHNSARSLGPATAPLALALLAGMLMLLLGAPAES
Polyadenylate-binding protein 1, sequence (P11940 whole entry): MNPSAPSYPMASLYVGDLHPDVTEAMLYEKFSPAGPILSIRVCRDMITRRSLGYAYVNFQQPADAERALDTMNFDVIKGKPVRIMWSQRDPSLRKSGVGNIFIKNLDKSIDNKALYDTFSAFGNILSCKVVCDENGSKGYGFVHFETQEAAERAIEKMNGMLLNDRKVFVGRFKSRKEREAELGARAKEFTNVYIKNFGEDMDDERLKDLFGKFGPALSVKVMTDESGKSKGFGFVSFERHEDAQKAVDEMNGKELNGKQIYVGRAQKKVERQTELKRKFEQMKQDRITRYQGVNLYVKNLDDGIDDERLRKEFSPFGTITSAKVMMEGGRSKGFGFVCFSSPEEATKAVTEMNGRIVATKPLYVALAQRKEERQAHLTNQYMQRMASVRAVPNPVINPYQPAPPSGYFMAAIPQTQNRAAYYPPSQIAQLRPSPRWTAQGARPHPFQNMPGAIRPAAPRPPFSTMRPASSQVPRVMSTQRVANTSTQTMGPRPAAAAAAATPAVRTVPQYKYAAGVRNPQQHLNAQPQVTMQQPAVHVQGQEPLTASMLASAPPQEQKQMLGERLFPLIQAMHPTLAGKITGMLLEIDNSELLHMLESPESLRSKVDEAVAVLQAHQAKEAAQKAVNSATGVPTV

`O=C(N/N=C/c1ccc(O)cc1O)C(=O)N/N=C/c1ccc(O)cc1O` was tested, and the IC50 [1] was 51.3 µM (active), the IC50 [2] was > 100 µM (inactive) and the IC50 [3] was 2.31 µM (active). For the same compound, the EC50 [4] was 7.62 µM (active), the EC50 [5] was 4.56 µM (active) and the IC50 [6] was 0.604 µM (active). The EC50 [7] was > 100 µM (inactive) and the IC50 [8] was 38.1 µM (active).
In the case of `Cc1onc(-c2ccccc2)c1C(=O)NC(=S)NNC(=O)c1ccc(O)cc1O`, the AC50 [9] was 3.95 µM (active), the IC50 [10] was 11.4 µM (active) and the EC50 [11] was 6.86 µM (active). For the same compound, the EC50 [12] was > 150 µM (not active), the EC50 [13] was 25.3 µM (active) and the AC50 [14] was 1.15 µM (active).
